The text below walks through data of US10369123B2, “Perk activator for the treatment of neurodegenerative diseases” (DEUTSCHES ZENTRUM FÜR NEURODEGENERATIVE ERKRANKUNGEN E.V. …, priority 2014, dated 2019).

Entries after “also recorded” stand apart in the source; their conditions may differ.

One assay concerns the target T1, PERK (Homo sapiens, UniProt Q9NZJ5).
T1 sequence (Q9NZJ5 30-1116): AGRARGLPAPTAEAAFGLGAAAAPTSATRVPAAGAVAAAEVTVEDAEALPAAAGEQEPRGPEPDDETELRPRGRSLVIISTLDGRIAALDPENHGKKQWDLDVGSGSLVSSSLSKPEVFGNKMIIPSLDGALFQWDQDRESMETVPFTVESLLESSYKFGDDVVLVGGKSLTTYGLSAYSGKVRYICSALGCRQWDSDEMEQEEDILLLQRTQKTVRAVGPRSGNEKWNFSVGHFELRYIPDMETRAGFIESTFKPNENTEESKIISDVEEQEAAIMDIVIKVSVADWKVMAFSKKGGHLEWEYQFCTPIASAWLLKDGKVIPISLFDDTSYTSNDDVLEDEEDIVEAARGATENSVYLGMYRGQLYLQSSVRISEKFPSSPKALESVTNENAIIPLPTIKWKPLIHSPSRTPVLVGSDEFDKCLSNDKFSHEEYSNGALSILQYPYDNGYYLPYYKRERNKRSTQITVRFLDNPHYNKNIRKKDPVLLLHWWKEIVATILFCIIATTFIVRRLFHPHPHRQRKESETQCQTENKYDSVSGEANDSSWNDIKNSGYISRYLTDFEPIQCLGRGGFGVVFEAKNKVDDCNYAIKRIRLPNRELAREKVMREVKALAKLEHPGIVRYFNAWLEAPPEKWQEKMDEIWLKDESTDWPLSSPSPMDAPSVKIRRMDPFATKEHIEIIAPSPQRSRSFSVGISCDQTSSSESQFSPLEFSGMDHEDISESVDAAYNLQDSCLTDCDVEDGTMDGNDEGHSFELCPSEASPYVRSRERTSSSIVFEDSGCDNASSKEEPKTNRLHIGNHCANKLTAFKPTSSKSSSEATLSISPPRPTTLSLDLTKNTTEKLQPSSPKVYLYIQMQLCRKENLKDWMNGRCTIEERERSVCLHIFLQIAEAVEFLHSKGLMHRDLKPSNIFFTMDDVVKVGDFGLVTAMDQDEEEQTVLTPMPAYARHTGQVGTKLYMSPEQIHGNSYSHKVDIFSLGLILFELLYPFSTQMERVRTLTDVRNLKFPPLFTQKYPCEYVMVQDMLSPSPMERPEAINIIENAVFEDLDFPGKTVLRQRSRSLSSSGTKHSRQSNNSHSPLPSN
The experiment in a line: Western blot for pEIF2A and pNRF2, annonacin model of tauopathy. Conditions: in the presence of 25 nM annonacin, 48 h. Set-up: endogenous in cells; host or cells: LUHMES neurons (differentiated, human); in A5 transduced with lentivirus for 3R-/4R-tau or mCherry, not for PERK. In kind it is cell-based. The method, then: Nunc™ Nunclon™ Delta 6-well (for protein and mRNA) or 48-well (for cell assays) plates (Thermo Fisher Scientific, Waltham, Mass., USA) were coated with 100 μg/ml poly-L-lysine (Sigma-Aldrich, St. Louis, Mo., USA) and 5 μg/ml fibronectin (Sigma-Aldrich). LUHMES (Lund Human Mesencephalic) cells, derived from human embryonic ventral mesencephalic cells by conditional immortalization (Tet-off v-myc over-expression) were seeded out in a concentration of 130,000 cells/cm^2 to achieve a confluence of 50%. They were then differentiated for 8 days in a medium of DMEM/F12 (Sigma-Aldrich), 1 μg/ml tetracycline, […] and 490 μg/ml dbcAMP into post-mitotic neurons with a dopaminergic phenotype (Lotharius et al. 2005). […]
Protein was extracted by scraping the cells from the culture plate with Mammalian Protein Extraction Reagent (M-PER, Thermo Fisher Scientific) and 1× cOmplete Protease Inhibitor Cocktail Tablets (Hoffmann-La Roche, Basel, Switzerland) and 1× PhosSTOP Phosphatase Inhibitor Cocktail Tablets (Hoffmann-La Roche). […] Protein concentrations were determined using the BCA kit (Thermo Fisher Scientific) by heating the samples at 60° C. for 30 min and measuring the absorption on the NanoDrop 2000c Spectrophotometer (Thermo Fisher Scientific). […]
On the technique in general: Immunoblotting shows a protein as a band on a membrane.

In a further assay the test system is LUHMES neurons. Kind of assay: MTT assay, annonacin-treated LUHMES neurons. The note with it: annonacin + PERK activator 200 nM or PERK inhibitor 300 nM, 48 h, vs no PERK modulator. In kind it is cell-based, human. The method, then: Nunc™ Nunclon™ Delta 6-well (for protein and mRNA) or 48-well (for cell assays) plates (Thermo Fisher Scientific, Waltham, Mass., USA) were coated with 100 μg/ml poly-L-lysine (Sigma-Aldrich, St. Louis, Mo., USA) and 5 μg/ml fibronectin (Sigma-Aldrich). LUHMES (Lund Human Mesencephalic) cells, derived from human embryonic ventral mesencephalic cells by conditional immortalization (Tet-off v-myc over-expression) were seeded out in a concentration of 130,000 cells/cm^2 to achieve a confluence of 50%. They were then differentiated for 8 days in a medium of DMEM/F12 (Sigma-Aldrich), 1 μg/ml tetracycline, […] and 490 μg/ml dbcAMP into post-mitotic neurons with a dopaminergic phenotype (Lotharius et al. 2005).
For all experiments with annonacin, the medium was replaced during the intoxication period with new medium containing glucose levels reduced to 250 μM, i.e. the physiological concentration in the human brain.
Thiazolyl Blue Tetrazolium […] (MTT) (Sigma Aldrich) was dissolved in sterile PBS to a concentration of 5 mg/ml. This stock solution was added to the cells in culture medium to achieve a final concentration of 0.5 mg/ml. The 48-well culture plate was then incubated at 37° C. for 1 h, the medium removed completely and frozen at −80° C. for 1 h. The plate was then thawed, 300 μl DMSO (AppliChem, Darmstadt, Germany) was added per well and the plate was shaken to ensure complete dissolution of the violet crystals. 100 μl from each well were transferred to a new 96-well plate and the absorbance was read with the FLUOstar Omega (BMG Labtech) platereader at a wavelength of 590 nm (reference wave length 630 nm). The data was analyzed using the MARS Data Analysis Software (BMG Labtech) and Prism 6.

For the molecule `Cn1cc(-c2ccc3c(c2)CCN3C(=O)Cc2cccc(C(F)(F)F)c2)c2c(N)ncnc21` [GSK2606414, reference compound], the pEIF2A level result at PERK (PERK inhibitor 300 nM) is recorded as “reduced pEIF2A levels significantly”. The “MTT test, effect of co-treatment” value in the assay on LUHMES neurons is given as “did not significantly improve; also recorded: never significant”.

Regarding `CCN(CC)CCC(=O)N1N=C(c2c(-c3ccccc3)c3cc(Br)ccc3[nH]c2=O)CC1c1ccc(Br)cc1` (stereo not shown) [CCT020312, 6-bromo-3-[5-(4-bromo-phenyl)-1-(3-diethylamino-propionyl)-4,5-dihydro-1H-pyrazol-3-yl]-4-phenyl-1H-quinolin-2-one], the pNRF2 level result on PERK (PERK activator 200 nM) is reported as “increased only pNRF2 significantly”. In addition, the “MTT test, effect of co-treatment” value with LUHMES neurons was “significant improvement”.
